Measurements reported in patent US20210085739A1, “ANTIPLATELET ACTIVITY OF THE ACANTHUS MOLLIS SEEDS' TOTAL EXTRACT AND ITS CONSTITUENTS” (priority 2017, published 2021).

Experiments:
[1] = test system: platelet aggregation induced by TRAP-6; assay: Light Transmittance Aggregometry in human PRP, agonist TRAP-6 (10 μM); type: cell-based; settings: each agent 1 mg/mL, combinations at mass ratios 1:1 or 1:1:1
Description: (§1) The effect of methanol extract on platelet aggregation in vitro was extensively studied in human Platelet Rich Plasma (PRP) from healthy volunteers, using Light Transmittance Aggregometry (LTA), as we previously described (Mitsios J V, et al. Eur J Biochem. 2004; 271:855-862). PRP was activated by arachidonic acid (AA; 0.5 mM), Thrombin Receptor Activating Peptide-6 (TRAP-6; 10 μM) and ADP (10 μM), as agonists. Samples were prepared by evaporating the methanol under nitrogen and then by dissolving the residue in DMSO. The maximal aggregation, achieved within 4 min after the addition of each agonist, was determined and expressed as a percentage of 100% light transmission calibrated for each specimen (% maximal aggregation). The inhibitory efficacy of the seeds extract expressed as IC50 value (half maximal inhibitory concentration). All values derived from at least three independent experiments performed for each platelet agonist, using 3 different methanol extract preparations (prepared as described above) and are expressed as the mean±standard deviation (S.D.). The final concentration of DMSO in each assay was 0.01% by volume.
(§2) Each fraction was dissolved in DMSO and used at a final concentration of 1 mg/mL. Standards of Verbascoside and Isoverbascoside were also dissolved in DMSO and used at a final concentration of 1 mg/mL. […] This concentration was not much lower to that of the total extract 0.25 mg/mL (as it would expected, since we used a purified fraction from the total extract that expresses the inhibitory activity towards AA-induced platelet aggregation). Therefore, we used a combination of fraction 1 with fraction 2 or 3 (at mass ratios of 1:1) or a combination of the 3 fractions (at mass ratios of 1:1:1).
Next we evaluated the biological effect of the three fractions towards platelet aggregation induced by TRAP-6.

[2] = test system: platelet aggregation induced by AA; assay: Light Transmittance Aggregometry in human PRP, agonist arachidonic acid (AA; 0.5 mM); type: cell-based; settings: for inhibition of AA-induced platelet aggregation (FIG. 5A, 6A): each agent 1 mg/mL, combinations at mass ratios 1:1 or 1:1:1
Description: as §1, §2

SMILES	inhibition of TRAP-6-induced platelet aggregation (FIG. 5B, 6B) [1]	inhibition of AA-induced platelet aggregation (FIG. 5A, 6A) [2]	threshold concentration (the lower concentration that induces the maximum inhibitory effect), AA-induced platelet aggregation [2] [mg/mL]
C[C@@H]1O[C@@H](O[C@@H]2[C@@H](O)[C@H](OCCc3ccc(O)c(O)c3)O[C@H](COC(=O)/C=C/c3ccc(O)c(O)c3)[C@H]2O)[C@H](O)[C@H](O)[C@H]1O [Isoverbascoside]	inhibited platelet aggregation	do not inhibit platelet aggregation	–
C[C@@H]1O[C@@H](O[C@@H]2[C@@H](O)[C@H](OCCc3ccc(O)c(O)c3)O[C@H](CO)[C@H]2OC(=O)/C=C/c2ccc(O)c(O)c2)[C@H](O)[C@H](O)[C@H]1O [Verbascoside]	only Isoverbascoside inhibited platelet aggregation	do not inhibit platelet aggregation	–
O=C1C(O[C@@H]2O[C@H](CO)[C@@H](O)[C@H](O)[C@H]2O)Oc2ccccc2N1O (stereo partly drawn) [fraction 1, 2-O-β-D-glucopyranosyl-4-hydroxy-1,4-benzoxazin-3-one]	no inhibitory activity	inhibited platelet aggregation	0.2
